Data on 1 molecule can be found in patent publication US20240226076A1, “Inhibitors of Tryptases and Their Use in Treating Allergies” (The Board of Trustees of the Leland Stanford Junior …, priority 2021, published 2024).

The target in one data set is T1, KLKB1 (Homo sapiens, UniProt P03952).
T1 construct: purchased Reaction Biology Corp
The data set is described as follows: Protease activity array (Reaction Biology Corp), KLKB1. The data set is classed as biochemical. The procedure: (§1) Avoralstat can inhibit Tryptase-b2 and -g1 as well as it inhibits KLKB1 in vitro. Avoralstat was assessed for inhibition against a panel of recombinant proteases including 2 Tryptases (Tryptase-b2 and -g1) and KLKB1 by commercial services from Reaction Biology Corp. The Reaction Biology Corp profile tested in a 10-dose IC50, with a dose range from 38 pM to 10 μM, against 70 proteases in FIG. 1E.
(§2) Protease activity array. […] The protease activities were monitored as a time-course measurement of the increase in fluorescence signal from fluorescently labeled peptide substrate, and initial linear portion of slope (signal/min) was analyzed.

A further data set concerns the target T2, Tryptase-b2 (Homo sapiens, UniProt P20231).
T2 construct: purchased Reaction Biology Corp
The data set is described as follows: Protease activity array (Reaction Biology Corp), Tryptase-b2. The data set is classed as biochemical. The procedure:
as §1, §2

Another data set addresses T3, Tryptase-g1 (Homo sapiens, UniProt Q9NRR2).
T3 construct: purchased Reaction Biology Corp
The data set is described as follows: Protease activity array (Reaction Biology Corp), Tryptase-g1. The data set is classed as biochemical. Here is the method: as §1, §2

A further data set deals with T4, Kallikrein-12 (Homo sapiens, UniProt Q9UKR0).
T4 construct: purchased Reaction Biology Corp
T4 sequence (Q9UKR0 18-248): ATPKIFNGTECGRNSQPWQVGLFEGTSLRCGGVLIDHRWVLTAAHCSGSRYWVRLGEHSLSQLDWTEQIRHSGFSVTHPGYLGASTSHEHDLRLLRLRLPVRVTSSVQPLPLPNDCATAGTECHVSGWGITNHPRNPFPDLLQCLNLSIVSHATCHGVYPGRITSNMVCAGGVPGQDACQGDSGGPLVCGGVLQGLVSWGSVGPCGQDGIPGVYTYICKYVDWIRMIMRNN
The data set is described as follows: Protease activity array (Reaction Biology Corp), Kallikrein-12. To be noted: recombinant protease, 10-dose IC50, fluorescently labeled peptide substrate. The data set is classed as biochemical. Here is the method:
as §1, §2

Another data set has as its target T5, Kallikrein-14 (Homo sapiens, UniProt Q9P0G3).
T5 construct: purchased Reaction Biology Corp
T5 sequence (Q9P0G3 25-251): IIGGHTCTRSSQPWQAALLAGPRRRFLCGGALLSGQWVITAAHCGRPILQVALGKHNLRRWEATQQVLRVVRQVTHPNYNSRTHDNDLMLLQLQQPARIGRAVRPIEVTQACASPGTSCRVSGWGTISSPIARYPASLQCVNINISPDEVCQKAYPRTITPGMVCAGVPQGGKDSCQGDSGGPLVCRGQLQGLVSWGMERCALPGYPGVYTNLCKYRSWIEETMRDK
As to the kind of experiment: Protease activity array (Reaction Biology Corp), Kallikrein-14. The data set is classed as biochemical. To be noted: recombinant protease, 10-dose IC50, fluorescently labeled peptide substrate. The procedure:
as §1, §2

The conditions of data set [1]: oral drug, phase III clinical trials for hereditary angioedema; cited from earlier work.

T1 sequence (P03952 20-638): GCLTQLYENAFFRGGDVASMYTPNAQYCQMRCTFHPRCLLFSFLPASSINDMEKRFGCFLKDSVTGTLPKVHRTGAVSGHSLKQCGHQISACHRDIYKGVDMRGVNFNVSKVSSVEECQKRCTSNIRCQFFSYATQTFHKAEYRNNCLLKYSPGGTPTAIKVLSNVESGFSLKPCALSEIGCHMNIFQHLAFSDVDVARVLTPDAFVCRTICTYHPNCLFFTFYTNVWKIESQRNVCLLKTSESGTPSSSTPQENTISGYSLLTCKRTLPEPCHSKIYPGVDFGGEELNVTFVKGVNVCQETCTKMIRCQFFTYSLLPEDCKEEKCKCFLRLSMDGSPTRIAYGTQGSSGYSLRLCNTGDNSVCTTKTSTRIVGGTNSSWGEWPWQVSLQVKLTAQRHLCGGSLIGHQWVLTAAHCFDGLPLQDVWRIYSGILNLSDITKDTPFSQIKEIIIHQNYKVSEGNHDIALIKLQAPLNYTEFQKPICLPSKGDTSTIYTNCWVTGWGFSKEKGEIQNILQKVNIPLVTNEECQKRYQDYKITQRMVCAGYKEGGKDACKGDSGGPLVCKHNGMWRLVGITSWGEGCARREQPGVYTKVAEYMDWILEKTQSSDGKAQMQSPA
T3 sequence (Q9NRR2 20-321): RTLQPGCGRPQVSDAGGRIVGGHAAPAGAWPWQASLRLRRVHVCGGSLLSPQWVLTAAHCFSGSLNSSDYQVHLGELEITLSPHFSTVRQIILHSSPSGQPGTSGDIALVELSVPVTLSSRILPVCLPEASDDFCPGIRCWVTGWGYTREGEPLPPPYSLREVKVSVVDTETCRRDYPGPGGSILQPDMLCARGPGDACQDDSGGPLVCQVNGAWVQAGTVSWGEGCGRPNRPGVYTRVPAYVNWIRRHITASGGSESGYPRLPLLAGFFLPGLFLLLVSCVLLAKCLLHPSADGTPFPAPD
T2 sequence (P20231 31-275): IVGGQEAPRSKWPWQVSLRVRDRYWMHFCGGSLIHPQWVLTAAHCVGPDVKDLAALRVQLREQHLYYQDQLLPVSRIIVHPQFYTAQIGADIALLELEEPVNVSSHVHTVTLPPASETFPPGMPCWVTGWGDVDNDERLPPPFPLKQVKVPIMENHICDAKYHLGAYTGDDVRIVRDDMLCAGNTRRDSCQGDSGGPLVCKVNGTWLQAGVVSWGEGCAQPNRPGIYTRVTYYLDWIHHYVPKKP

For the molecule `C=Cc1cc(C(=O)Nc2ccc(C(=N)N)cc2)c(-c2ccc(C(=O)NCC3CC3)nc2C(=O)O)cc1OC` [Avoralstat], the IC50 (in general, the midpoint of a concentration-inhibition curve) against KLKB1 turned out to be 0.13 nM; at Tryptase-b2 it was 0.99 nM; on Tryptase-g1 it was 0.93 nM. Besides, the inhibition result on Kallikrein-12 and at Kallikrein-14 was “sub-nanomolar inhibition” throughout. In addition, the clinical safety entry in data set [1] is “clinically proven to be safe”.
